Test results taken from PubChem BioAssay (NCI).
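Exposure lasted 48 hours, with cells grown in 96-well plates and compounds tested at five concentrations. GI50 = concentration required for 50% inhibition of growth. TGI: total growth inhibition.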

Experiments:
Assay in all cases: NCI tumour cell line growth inhibition, 48 h
A549 NSCLC = test system: A549 NSCLC
ACHN renal = test system: ACHN renal
COLO 205 colon = test system: COLO 205 colon
DMS 114 small cell lung = test system: DMS 114 small cell lung
DMS 273 small cell lung = test system: DMS 273 small cell lung
HOP-18 NSCLC = test system: HOP-18 NSCLC
HOP-92 NSCLC = test system: HOP-92 NSCLC
OVCAR-8 ovarian = test system: OVCAR-8 ovarian
SF-539 CNS = test system: SF-539 CNS
UACC-257 melanoma = test system: UACC-257 melanoma
MDA-MB-435 = test system: MDA-MB-435

## CN(C)CCC(/C=C/c1ccccc1)=N\Nc1ccc(Cl)cc1
A549 NSCLC
  TGI: 7.34 µM
ACHN renal
  TGI: 5.15 µM
COLO 205 colon
  TGI: 16.5 µM
DMS 114 small cell lung
  TGI: 5.9 µM
DMS 273 small cell lung
  TGI: 4.66 µM
HOP-18 NSCLC
  TGI: 17 µM
HOP-92 NSCLC
  TGI: 8.82 µM
OVCAR-8 ovarian
  TGI: 14 µM
SF-539 CNS
  TGI: 5.32 µM
UACC-257 melanoma
  TGI: 14.5 µM

## CC(C)(C)c1cc(-c2c3nc(c(-c4cc(C(C)(C)C)cc(C(C)(C)C)c4)c4ccc([nH]4)c(-c4cc(C(C)(C)C)cc(C(C)(C)C)c4)c4nc(c(-c5cc(C(C)(C)C)cc(C(C)(C)C)c5)c5ccc2[nH]5)C=C4)C=C3)cc(C(C)(C)C)c1
A549 NSCLC
  TGI: > 100 µM
ACHN renal
  TGI: > 100 µM
COLO 205 colon
  TGI: > 100 µM
DMS 114 small cell lung
  TGI: > 100 µM
DMS 273 small cell lung
  TGI: > 100 µM
HOP-18 NSCLC
  TGI: > 100 µM
HOP-92 NSCLC
  TGI: > 100 µM
OVCAR-8 ovarian
  TGI: > 100 µM
SF-539 CNS
  TGI: > 100 µM
UACC-257 melanoma
  TGI: > 100 µM

## COc1cc(/C=C2\NC(=S)C3Cc4c(OC)c(C)c(OC)c(OC)c4C2N3C)c(OC)c(C)c1OC (centres undefined)
A549 NSCLC
  TGI: > 100 µM
ACHN renal
  TGI: > 100 µM
COLO 205 colon
  TGI: 35.2 µM
DMS 114 small cell lung
  TGI: 92.1 µM
DMS 273 small cell lung
  TGI: > 100 µM
HOP-18 NSCLC
  TGI: > 100 µM
HOP-92 NSCLC
  TGI: > 100 µM
OVCAR-8 ovarian
  TGI: > 100 µM
SF-539 CNS
  TGI: > 100 µM
UACC-257 melanoma
  TGI: > 100 µM

## CC1(C)Cc2nnsc2C2=C1C(=O)CCS2
A549 NSCLC
  TGI: > 100 µM
ACHN renal
  TGI: > 100 µM
COLO 205 colon
  TGI: > 100 µM
DMS 114 small cell lung
  TGI: > 100 µM
DMS 273 small cell lung
  TGI: > 100 µM
HOP-18 NSCLC
  TGI: > 100 µM
HOP-92 NSCLC
  TGI: > 100 µM
OVCAR-8 ovarian
  TGI: > 100 µM
SF-539 CNS
  TGI: > 100 µM
UACC-257 melanoma
  TGI: > 100 µM

## O=C1[C@@H]2C(c3ccncc3)=NO[C@@H]2C(=O)N1c1ccc(Cc2ccc(N3C(=O)[C@H]4C(c5ccncc5)=NO[C@H]4C3=O)cc2)cc1
A549 NSCLC
  TGI: > 100 µM
ACHN renal
  TGI: > 100 µM
COLO 205 colon
  TGI: > 100 µM
DMS 114 small cell lung
  TGI: > 100 µM
DMS 273 small cell lung
  TGI: > 100 µM
HOP-18 NSCLC
  TGI: > 100 µM
HOP-92 NSCLC
  TGI: > 100 µM
OVCAR-8 ovarian
  TGI: > 100 µM
SF-539 CNS
  TGI: > 100 µM
UACC-257 melanoma
  TGI: > 100 µM

## Cc1[nH]c(=O)nc(N/N=C/c2ccc(Cl)cc2)c1C(=O)Nc1ccc(Cl)cc1
A549 NSCLC
  TGI: > 63.1 µM
ACHN renal
  TGI: > 89.2 µM
COLO 205 colon
  TGI: > 88.1 µM
DMS 114 small cell lung
  TGI: 56.1 µM
DMS 273 small cell lung
  TGI: > 100 µM
HOP-18 NSCLC
  TGI: 7.3 µM
HOP-92 NSCLC
  TGI: 77.8 µM
MDA-MB-435
  TGI: > 100 µM
OVCAR-8 ovarian
  TGI: 37.5 µM
SF-539 CNS
  TGI: 67.6 µM
UACC-257 melanoma
  TGI: > 94.6 µM

## Cc1cccc(C)c1NC(=O)CCCC(=O)C(C#N)c1ccc(Cl)cc1 (centres undefined)
A549 NSCLC
  TGI: > 100 µM
ACHN renal
  TGI: > 100 µM
COLO 205 colon
  TGI: > 100 µM
DMS 114 small cell lung
  TGI: > 100 µM
DMS 273 small cell lung
  TGI: > 100 µM
HOP-18 NSCLC
  TGI: > 100 µM
HOP-92 NSCLC
  TGI: > 100 µM
OVCAR-8 ovarian
  TGI: > 100 µM
SF-539 CNS
  TGI: > 100 µM
UACC-257 melanoma
  TGI: > 100 µM

## O=C1c2ccccc2C(=O)c2sc(Nc3ccc(Cl)cc3)nc21
A549 NSCLC
  TGI: 24.6 µM
ACHN renal
  TGI: 3.06 µM
COLO 205 colon
  TGI: 17.7 µM
DMS 114 small cell lung
  TGI: 3.63 µM
DMS 273 small cell lung
  TGI: 3.74 µM
HOP-18 NSCLC
  TGI: 7.26 µM
HOP-92 NSCLC
  GI50: 10.3 µM
  TGI: 22.9 µM
MDA-MB-435
  GI50: 1.29 µM
  TGI: 2.69 µM
OVCAR-8 ovarian
  TGI: 4.49 µM
SF-539 CNS
  TGI: 6.33 µM
UACC-257 melanoma
  TGI: 3.28 µM

## Cc1ccccc1NC(=O)C(=O)CC(=O)C1CCOC1=O (centres undefined)
A549 NSCLC
  TGI: > 100 µM
ACHN renal
  TGI: > 100 µM
COLO 205 colon
  TGI: > 100 µM
DMS 114 small cell lung
  TGI: > 100 µM
DMS 273 small cell lung
  TGI: > 100 µM
HOP-18 NSCLC
  TGI: > 100 µM
HOP-92 NSCLC
  TGI: > 100 µM
OVCAR-8 ovarian
  TGI: > 100 µM
SF-539 CNS
  TGI: > 100 µM
UACC-257 melanoma
  TGI: > 100 µM

## COc1ccc(/C(=C\c2cc(OC)c(OC)c(OC)c2)C(=O)O)cc1
A549 NSCLC
  TGI: > 100 µM
ACHN renal
  TGI: > 100 µM
COLO 205 colon
  TGI: 35.2 µM
DMS 114 small cell lung
  TGI: 67.2 µM
DMS 273 small cell lung
  TGI: > 100 µM
HOP-18 NSCLC
  TGI: > 100 µM
HOP-92 NSCLC
  TGI: > 100 µM
OVCAR-8 ovarian
  TGI: > 100 µM
SF-539 CNS
  TGI: 39 µM
UACC-257 melanoma
  TGI: > 100 µM
